One assay concerns HeLa cells. As to the kind of experiment: Assay 1 cell proliferation measurement (CTG, 72 h), HeLa. Type of assay: cell-based, human. The conditions noted are these: Homo sapiens, HeLa; Assay 1, 72 h, Cell Titer Glo; read-out: HeLa IC50 [nM] (Cervical cancer). The method in brief: (§1)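 Seed cells, incubate overnight at 37 °C; measure baseline viability (CTG, 0 h plate); dose compound in a 10-step 2.5-fold series (max generally 100 nM final, DMSO 0.3%) for 72 h; read CTG luminescence; fit IC50 with 4 parameters.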
(Cellular ATP, detected with luciferase, serves as a proxy for viable cell number.)

The test system of the next assay is SK-MEL-3 cells. Put plainly: Assay 1 cell proliferation measurement (CTG, 72 h), SK-MEL-3. Type of assay: cell-based, human. The settings on record: Homo sapiens, SK-MEL3; Assay 1, 72 h, Cell Titer Glo; read-out: SK-MEL-3 IC50 [nM] (melanoma). The method in brief:
as §1

Another assay deals with human full length PDE3A (Homo sapiens (Human), UniProt Q14432). As to the kind of experiment: Assay 4 PDE3A enzyme inhibition (3H-cAMP SPA). Type of assay: biochemical. The conditions noted are these: Sf9 cell extract. The method in brief: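 Hydrolysis of [8-3H]cAMP by Sf9-expressed full-length PDE3A was measured by scintillation proximity, with enzyme diluted to keep kinetics linear and substrate consumption below 70%. Incubation ran 60 min at room temperature at pH 7.5.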

Another assay addresses human full length PDE3B (Homo sapiens (Human), UniProt Q13370). As to the kind of experiment: Assay 5 PDE3B enzyme inhibition (3H-cAMP SPA). Format: biochemical. The conditions noted are these: Sf9 cell extract. The method in brief:
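Inhibition was measured by scintillation proximity using [8-3H]adenosine 3′,5′-cyclic phosphate as substrate and full-length human PDE3B from an Sf9 overexpression extract, run one hour at room temperature at pH 7.5.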

IC50 data for 10 compounds are collected here from US11427553B2, “Dihydrooxadiazinones” (Bayer Aktiengesellschaft, priority 2017, dated 2022).

Broadly, the IC50 is the concentration that gives 50% inhibition.

Chain of human full length PDE3B (Q13370 whole entry): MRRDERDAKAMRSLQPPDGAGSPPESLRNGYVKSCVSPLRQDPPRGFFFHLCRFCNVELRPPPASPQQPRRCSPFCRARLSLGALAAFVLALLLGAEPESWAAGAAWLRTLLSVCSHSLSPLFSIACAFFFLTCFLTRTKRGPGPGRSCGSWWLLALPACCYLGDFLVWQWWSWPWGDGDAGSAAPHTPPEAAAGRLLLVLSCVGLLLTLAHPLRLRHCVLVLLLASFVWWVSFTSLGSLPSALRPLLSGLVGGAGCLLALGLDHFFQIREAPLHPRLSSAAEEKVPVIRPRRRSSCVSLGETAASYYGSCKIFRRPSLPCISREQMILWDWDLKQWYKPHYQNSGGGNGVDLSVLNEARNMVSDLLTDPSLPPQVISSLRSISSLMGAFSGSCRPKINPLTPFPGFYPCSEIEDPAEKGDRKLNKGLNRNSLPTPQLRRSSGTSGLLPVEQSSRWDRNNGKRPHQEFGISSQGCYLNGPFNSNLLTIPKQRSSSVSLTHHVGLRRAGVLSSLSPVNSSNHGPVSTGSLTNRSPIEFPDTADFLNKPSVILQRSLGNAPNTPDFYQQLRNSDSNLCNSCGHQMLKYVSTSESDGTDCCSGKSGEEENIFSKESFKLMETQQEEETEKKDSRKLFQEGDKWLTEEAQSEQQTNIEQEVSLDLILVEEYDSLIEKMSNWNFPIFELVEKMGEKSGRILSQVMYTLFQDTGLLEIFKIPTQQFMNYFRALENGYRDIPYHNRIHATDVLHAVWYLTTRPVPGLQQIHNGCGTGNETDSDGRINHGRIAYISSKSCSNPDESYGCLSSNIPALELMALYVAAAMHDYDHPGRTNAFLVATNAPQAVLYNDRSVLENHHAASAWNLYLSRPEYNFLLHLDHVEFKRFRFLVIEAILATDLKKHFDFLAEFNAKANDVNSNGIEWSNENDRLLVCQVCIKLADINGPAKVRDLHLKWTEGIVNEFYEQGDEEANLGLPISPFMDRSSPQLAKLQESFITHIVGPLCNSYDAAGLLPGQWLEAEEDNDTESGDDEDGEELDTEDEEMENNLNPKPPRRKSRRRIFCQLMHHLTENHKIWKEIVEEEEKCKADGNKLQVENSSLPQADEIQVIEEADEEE
Chain of human full length PDE3A (Q14432 whole entry): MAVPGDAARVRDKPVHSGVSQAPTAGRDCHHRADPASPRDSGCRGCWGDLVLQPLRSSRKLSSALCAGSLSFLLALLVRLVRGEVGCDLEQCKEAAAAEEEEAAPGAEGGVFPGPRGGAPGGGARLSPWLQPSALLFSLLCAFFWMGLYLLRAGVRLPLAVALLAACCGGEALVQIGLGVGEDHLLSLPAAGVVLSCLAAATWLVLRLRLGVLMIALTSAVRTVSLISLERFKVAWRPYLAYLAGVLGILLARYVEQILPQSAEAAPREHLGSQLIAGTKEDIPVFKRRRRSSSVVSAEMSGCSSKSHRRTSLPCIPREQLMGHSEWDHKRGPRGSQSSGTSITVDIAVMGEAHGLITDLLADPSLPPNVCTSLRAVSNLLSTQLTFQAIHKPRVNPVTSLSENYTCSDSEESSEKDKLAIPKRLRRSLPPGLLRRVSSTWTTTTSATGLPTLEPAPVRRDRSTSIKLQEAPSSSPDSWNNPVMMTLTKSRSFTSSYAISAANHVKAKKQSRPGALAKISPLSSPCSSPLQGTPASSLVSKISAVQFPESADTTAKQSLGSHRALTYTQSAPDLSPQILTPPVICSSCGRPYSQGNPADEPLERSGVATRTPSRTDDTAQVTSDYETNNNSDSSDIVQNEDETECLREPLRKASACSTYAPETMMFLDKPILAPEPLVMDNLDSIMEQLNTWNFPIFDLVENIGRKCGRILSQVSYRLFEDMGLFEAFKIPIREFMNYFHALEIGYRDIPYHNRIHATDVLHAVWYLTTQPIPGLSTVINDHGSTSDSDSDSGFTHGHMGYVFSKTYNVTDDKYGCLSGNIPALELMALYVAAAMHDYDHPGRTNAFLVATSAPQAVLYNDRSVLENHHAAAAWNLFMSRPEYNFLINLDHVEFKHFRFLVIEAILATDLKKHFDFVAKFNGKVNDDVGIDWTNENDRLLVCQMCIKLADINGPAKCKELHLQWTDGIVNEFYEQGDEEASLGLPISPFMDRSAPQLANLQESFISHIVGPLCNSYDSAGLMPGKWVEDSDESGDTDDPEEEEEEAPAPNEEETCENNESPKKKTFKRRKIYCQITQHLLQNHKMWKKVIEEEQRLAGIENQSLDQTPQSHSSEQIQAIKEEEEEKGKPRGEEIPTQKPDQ

`Cc1ccc(-c2ccc(C3=NNC(=O)O[C@H]3C)cc2C(F)(F)F)cc1F` [Example 178, (6S)-5-[3′-Fluoro-4′-methyl-2-(trifluoromethyl)[1,1′-biphenyl]-4-yl]-6-methyl-3,6-dihydro-2H-1,3,4-oxadiazin-2-one]: the IC50 in the assay on HeLa cells came to 13 nM; with SK-MEL-3 cells, 19 nM; at human full length PDE3A, 0.14 µM; against human full length PDE3B, 0.13 µM.

For the compound `C[C@@H]1OC(=O)NN=C1c1ccc(-c2ccccc2F)c(C(F)(F)F)c1` [Example 179, (6S)-5-[2′-Fluoro-2-(trifluoromethyl)[1,1′-biphenyl]-4-yl]-6-methyl-3,6-dihydro-2H-1,3,4-oxadiazin-2-one], the IC50 with HeLa cells was found to be 8 nM; in the assay on SK-MEL-3 cells it was 15 nM; on human full length PDE3A, 0.14 µM; at human full length PDE3B, 0.11 µM.

As for `COc1ccccc1-c1ccc(C2=NNC(=O)O[C@H]2C)cc1C(F)(F)F` [Example 180, (6S)-5-[2′-Methoxy-2-(trifluoromethyl)[1,1′-biphenyl]-4-yl]-6-methyl-3,6-dihydro-2H-1,3,4-oxadiazin-2-one], the IC50 with HeLa cells worked out at 36 nM; in the assay on SK-MEL-3 cells, 48 nM; at human full length PDE3A it was 0.25 µM; at human full length PDE3B, 0.25 µM.

Regarding `C[C@@H]1OC(=O)NN=C1c1ccc(-c2cccc(F)c2)c(C(F)(F)F)c1` [Example 181, (6S)-5-[3′-Fluoro-2-(trifluoromethyl)[1,1′-biphenyl]-4-yl]-6-methyl-3,6-dihydro-2H-1,3,4-oxadiazin-2-one], the IC50 with HeLa cells was determined as 3 nM; in the assay with SK-MEL-3 cells, 6 nM; on human full length PDE3A, 0.074 µM; on human full length PDE3B, 0.077 µM.

On to `Cc1ccncc1-c1ccc(C2=NNC(=O)O[C@H]2C)cc1C(F)(F)F` [Example 182, (6S)-6-Methyl-5-[4-(4-methylpyridin-3-yl)-3-(trifluoromethyl)phenyl]-3,6-dihydro-2H-1,3,4-oxadiazin-2-one], for which the IC50 with HeLa cells was 39 nM; in the assay with SK-MEL-3 cells, 54 nM; at human full length PDE3A it was 0.22 µM; on human full length PDE3B, 0.26 µM.

As to `Cc1cnccc1-c1ccc(C2=NNC(=O)O[C@H]2C)cc1C(F)(F)F` [Example 183, (6S)-6-Methyl-5-[4-(3-methylpyridin-4-yl)-3-(trifluoromethyl)phenyl]-3,6-dihydro-2H-1,3,4-oxadiazin-2-one], the IC50 stood at 15 nM in the assay on HeLa cells, 22 nM in the assay with SK-MEL-3 cells, 0.2 µM against human full length PDE3A and 0.17 µM against human full length PDE3B.

`Cc1cc(-c2ccc(C3=NNC(=O)O[C@H]3C)cc2C(F)(F)F)ccn1` [Example 184, (6S)-6-Methyl-5-[4-(2-methylpyridin-4-yl)-3-(trifluoromethyl)phenyl]-3,6-dihydro-2H-1,3,4-oxadiazin-2-one]: the IC50 in the assay on HeLa cells worked out at 5 nM; in the assay on SK-MEL-3 cells it was 6 nM; at human full length PDE3A, 0.066 µM; against human full length PDE3B it was 0.057 µM.

Consider `C[C@@H]1OC(=O)NN=C1c1ccc(-c2ccc3cc[nH]c3c2)c(C(F)(F)F)c1` [Example 185, (6S)-5-[4-(1H-Indol-6-yl)-3-(trifluoromethyl)phenyl]-6-methyl-3,6-dihydro-2H-1,3,4-oxadiazin-2-one], for which the IC50 in the assay with HeLa cells worked out at 4 nM; in the assay on SK-MEL-3 cells it was 6 nM; against human full length PDE3A, 0.049 µM; at human full length PDE3B it was 0.048 µM.

Take `COc1ccc(-c2ccc(C3=NNC(=O)O[C@H]3C)cc2C(F)(F)F)cn1` [Example 187, (6S)-5-[4-(6-Methoxypyridin-3-yl)-3-(trifluoromethyl)phenyl]-6-methyl-3,6-dihydro-2H-1,3,4-oxadiazin-2-one]: the IC50 in the assay on HeLa cells was 23 nM; in the assay with SK-MEL-3 cells, 40 nM; on human full length PDE3A, 0.081 µM; on human full length PDE3B it was 0.1 µM.

For the compound `COc1ccc(-c2ccc(C3=NNC(=O)O[C@H]3C)cc2C(F)(F)F)cc1` [Example 188, (6S)-5-[4′-Methoxy-2-(trifluoromethyl)[1,1′-biphenyl]-4-yl]-6-methyl-3,6-dihydro-2H-1,3,4-oxadiazin-2-one], the IC50 with HeLa cells stood at 22 nM; in the assay with SK-MEL-3 cells, 38 nM; against human full length PDE3A it was 0.09 µM; against human full length PDE3B, 0.1 µM.
